What follows are compounds tested on 80S14 (p21-deficient) cells (assay: Cytotoxicity assay using isogenic cell lines: IC50 in 80S14 (p21-deficient) cells, SRB). Details: 80S14 (p21-deficient) cells, 5 days, SRB; class symbols; read-out: IC50 for 80S14.
Assay type: cell-based, human
Outline: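 80S14 (p21-deficient) cells seeded at 12,000 cells/well overnight, then exposed 5 days at 37 °C to serial dilutions (5 pM–50 μM or 170 pg/ml–10 μg/ml). TCA-fixed, sulforhodamine B-stained, absorbance at 560 nm; IC50 taken from cytotoxicity curves versus untreated controls.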

Row | Compound | IC50 [µM]
1 | 3.5-Dinitro-N-{3-[3-(2-thienylcarbonyl)pyrazolo[1,5-a]pyrimidin-7-yl]phenyl}benzamide [Example 288] | 10 to 50

Same assay, conditions: 80S14 p21-deficient cells, 5 days incubation, SRB; read-out: IC50 for 80SI4

Row | Compound | IC50 [µM]
2 | CC(C)C[C@H](N)C(=O)Nc1cccc(-c2ccnc3c(C(=O)c4cccs4)cnn23)c1 [Example 80, N-1-{3-[3-(thien-2-ylcarbonyl)pyrazolo[1,5-a]pyrimidin-7-yl]phenyl}-L-leucinamide] | 1 to 10
3 | CC(C)(C)C(=O)NCC(=O)Nc1cccc(-c2ccnc3c(C(=O)c4cccs4)cnn23)c1 [Example 132] | 1 to 10
4 | CC(C)C[C@H](N)C(=O)Nc1cccc(-c2ccnc3c(C(=O)c4cccs4)cnn23)c1 [Example 79, N-1-{3-[3-(thien-2-ylcarbonyl)pyrazolo[1,5-a]pyrimidin-7-yl]phenyl}-L-leucinamide] | 10 to 50
5 | CN(C)CCNC(=O)Nc1cccc(-c2ccnc3c(C(=O)c4cccs4)cnn23)c1 [Example 161, N-[2-(dimethylamino)ethyl]-N′-{3-[3-(thien-2-ylcarbonlyl)pyrazolo[1,5-a]pyrimidin-7-yl]phenyl}urea] | 10 to 50

Same assay, conditions: Homo sapiens, 80S14, 120 h, read-out: IC50 for 80S14 (uM)

Row | Compound | IC50 [µM]
6 | CC(C)OC(=O)Nc1cccc(-c2ccnc3c(C(=O)c4ccccc4)cnn23)c1 [Example 294, Isopropyl 3-(3-benzoylpyrazolo[1,5-a]pyrimidin-7-yl)phenylcarbamate] | < 1
7 | CC(C)CC(=O)Nc1cccc(-c2ccnc3c(C(=O)C4CCCC4)cnn23)c1 [Example 296, N-{3-[3-(Cyclopentylcarbonyl)pyrazolo[1,5-a]pyrimidin-7-yl]phenyl}-3-methylbutanamide] | 1 to 10

Same assay, conditions: Homo sapiens, 80S14, 120 h, read-out: IC50 for 80SI4 (uM)

Row | Compound | IC50 [µM]
8 | C=CC(C)OC(=O)Nc1cccc(-c2ccnc3c(C(=O)c4cccs4)cnn23)c1 (centres unmarked) [Example 182, 1-methylprop-2-enyl 3-[3-(thien-2-ylcarbonyl)pyrazolo[1,5-a]pyrimidin-7-yl]phenylcarbamate] | < 1

Same assay, conditions: Homo sapiens, 120 h; 80S14 (p21-deficient) cells, 5 days, SRB; class symbols; read-out: IC50 for 80S14

Row | Compound | IC50 [µM]
9 | Cc1ccc(-c2ccnc3c(C(=O)c4cccs4)cnn23)cc1NC(=O)c1ccccc1 [Example 309, N-{2-Methyl-5-[3-(2-thienylcarbonyl)pyrazolo[1,5-a]pyrimidin-7-yl]phenyl}benzamide] | 1 to 10
10 | O=C(Nc1cccc(-c2ccnc3c(C(=O)c4ccco4)cnn23)c1)c1ccccc1 [Example 300, N-{3-[3-(2-Furoyl)pyrazolo[1,5-a]pyrimidin-7-yl]phenyl}benzamide] | 1 to 10
11 | COc1ccc(-c2ccnc3c(C(=O)c4cccs4)cnn23)c(OC)c1 [Example 246, [7-(2,4-dimethoxyphenyl)pyrazolo[1,5-a]-pyrimidin-3-yl}-2-thienyl-methanone] | 10 to 50
12 | O=C(c1cccs1)c1cnn2c(-c3cccc(F)c3)ccnc12 [Example 225, [7-(3-Fluorophenyl)pyrazolo[1,5-a]-pyrimidin-3-yl}-2-thienyl-methanone] | 10 to 50
13 | O=C(NC1CCCC1)c1cccc(-c2ccnc3c(C(=O)c4cccs4)cnn23)c1 [Example 320, N-Cyclopentyl-3-[3-(2-thienylcarbonyl)pyrazolo[1,5-a]pyrimidin-7-yl]benzamide] | < 1
14 | COCCOc1cccc(-c2ccnc3c(C(=O)c4cccs4)cnn23)c1 [Example 264, [7-[3-(2-Methoxyethoxy)phenyl]pyrazolo[1,5-a]pyrimidin-3-yl]-2-thienyl-methanone] | 1 to 10

Same assay, conditions: Homo sapiens, 120 h; 80S14 p21-deficient cells, 5 days incubation, SRB; read-out: IC50 for 80SI4

Row | Compound | IC50 [µM]
15 | C=CCOC(=O)Nc1cccc(-c2c(C)cnc3c(C(=O)c4cccs4)cnn23)c1 [Example 210, allyl 3-[6-methyl-3-(thien-2-ylcarbonyl)pyrazolo[1,5-a]pyrimidin-7-yl]phenylcarbamate] | 10 to 50
16 | O=C(c1cccs1)c1cnn2c(-c3cccc(NS(=O)(=O)/C=C/c4ccccc4)c3)ccnc12 [Example 37, (E)-2-phenyl-N-{3-[3-(thien-2-ylcarbonyl)pyrazolo[1,5-a]pyrimidin-7-yl]phenyl}ethenesulfonamide] | 10 to 50
17 | COc1ccc(C(=O)Nc2cccc(-c3ccnc4c(C(=O)c5cccs5)cnn34)c2)cc1 [Example 88, 4-methoxy-N-{3-[3-(thien-2-ylcarbonyl)pyrazolo[1,5-a]pyrimidin-7-yl]phenyl]benzamide] | < 1
18 | O=C(Cc1ccccc1)Nc1cccc(-c2ccnc3c(C(=O)c4cccs4)cnn23)c1 [Example 105, 2-phenyl-N-{3-[3-(thien-2-ylcarbonyl)pyrazolo[1,5-a]pyrimidin-7-yl]phenyl}acetamide] | < 1
19 | O=C(Nc1cccc(-c2ccnc3c(C(=O)c4cccs4)cnn23)c1)c1cnc2ccccc2c1 [Example 70, N-{3-[3-(thien-2-ylcarbonyl)pyrazolo[1,5-a]pyrimidin-7-yl]phenyl}quinoline-3-carboxamide] | 1 to 10
20 | CCCCCCC(=O)Nc1cccc(-c2ccnc3c(C(=O)c4cccs4)cnn23)c1 [Example 151, N-{3-[3-(thien-2-ylcarbonyl)pyrazolo[1,5-a]pyrimidin-7-yl]phenyl}heptanamide] | 1 to 10
21 | CC(C)NC(=O)Nc1cccc(-c2ccnc3c(C(=O)c4cccs4)cnn23)c1 [Example 6, N-isopropyl-N′-{3-[3-(thien-2-ylcarbonyl)pyrazolo[1,5-a]pyrimidin-7-yl]phenyl}urea] | < 1
22 | Cn1cnc(S(=O)(=O)Nc2cccc(-c3ccnc4c(C(=O)c5cccs5)cnn34)c2)c1 [Example 39, 1-methyl-N-{3-[3-(thien-2-ylcarbonyl)pyrazolo[1,5-a]pyrimidin-7-yl]phenyl}-1H-imidazole-4-sulfonamide] | 10 to 50
23 | CCCC(OC(=O)Nc1cccc(-c2ccnc3c(C(=O)c4cccs4)cnn23)c1)C(C)C (centres unmarked) [Example 192, 1-isopropylbutyl 3-[3-(thien-2-ylcarbonyl)pyrazolo[1,5-a]pyrimidin-7-yl]phenylcarbamate] | 1 to 10
24 | CC(C)COC(=O)NCC(=O)Nc1cccc(-c2ccnc3c(C(=O)c4cccs4)cnn23)c1 [Example 117, isobutyl 2-oxo-2-({3-[3-(thien-2-ylcarbonyl)pyrazolo[1,5-a]pyrimidin-7-yl]phenyl}amino)ethylcarbamate] | 1 to 10
25 | O=C(Nc1cccc(-c2ccnc3c(C(=O)c4cccs4)cnn23)c1)c1ccc(F)c(F)c1 [Example 102, 3,4-difluoro-N-{3-[3-(thien-2-ylcarbonyl)pyrazolo[1,5-a]pyrimidin-7-yl]phenyl}benzamide] | 1 to 10
26 | O=C(c1cccs1)c1cnn2c(-c3cccc(NS(=O)(=O)c4ccccc4)c3)ccnc12 [Example 31, N-{3-[3-(thien-2-ylcarbonyl)pyrazolo[1,5-a]pyrimidin-7-yl]phenyl}benzenesulfonamide] | 1 to 10
27 | CCC(C)C(=O)NCC(=O)Nc1cccc(-c2ccnc3c(C(=O)c4cccs4)cnn23)c1 (centres unmarked) [Example 130, 2-methyl-N-[2-oxo-2-({3-[3-(thien-2-ylcarbonyl)pyrazolo[1,5-a]pyrimidin-7-yl]phenyl}amino)ethyl]butanamide] | 10 to 50
28 | O=C(CNC(=O)C1CCCCC1)Nc1cccc(-c2ccnc3c(C(=O)c4cccs4)cnn23)c1 [Example 129, N-[2-oxo-2-({3-[3-(thien-2-ylcarbonyl)pyrazolo[1,5-a]pyrimidin-7-yl]phenyl}amino)ethyl]cyclohexanecarboxamide] | 10 to 50
29 | CCCCC(CC)C(=O)Nc1cccc(-c2ccnc3c(C(=O)c4cccs4)cnn23)c1 (centres unmarked) [Example 147, 2-ethyl-N-{3-[3-(thien-2-ylcarbonyl)pyrazolo[1,5-a]pyrimidin-7-yl}phenyl}hexanamide] | 1 to 10
